Test system: blood sugar-level
Assay: not given
Conditions: Land et al. 1975; cited from earlier work

Question: Which “clinical effect in treatment of hyperlipemia” value does the source give for `Cc1cc(C(=O)O)n[nH]1` [5-Methylpyrazol-3-carboxylic acid] here?
Answer: The value was “uncertainty of the derivative's clinical effect in treatment of hyperlipemia”.

Question: And the “side effect on blood sugar level” value?
Answer: The value was “causing the reduction of blood sugar-level”.

Test system: hypercholesterolemia
Assay: Pharmacological test against hypercholesterolemia (high cholesterol diet)
Type: in vivo
Conditions: male SD rats, oral 200 mg/kg/day for 7 days
Text: (ii) Pharmacological test against hypercholesterolemia:
Three groups of male SD rats each weighing ca. 150 g, each group consisting of five rats were used as the test animals and one group consisting of 10 rats was used as control. All animals were fed a high cholesterol diet consisted of 1% cholesterol, 0.2% sodium cholate, 5% olive oil and commercial diet up to total 100% for 7 days. The test compounds of the present invention and clofibrate, as a medicine for comparison, were respectively dissolved or dispersed in an aqueous 1% solution of CMC so that the volume of the solution or dispersion administered to each animal was 0.5 ml/100 g body weight/time, and the solution or dispersion was orally administered so that the amount of administration of each of the present pyrazole derivative or clofibrate was 200 mg/kg body weight/time. Actually, the administration was carried out once a day for 7 consecutive days. Water was taken ad lib. After 20 hours of fasting from the last administration, blood sample was taken by amputation of the carotid artery and the serum separated was frozen until the analysis of cholesterol shown as follows:
The content of serum cholesterol was determined by the above-mentioned method. The beta-lipoprotein-cholesterol was determined by "heparin-calcium precipitation method". The reduction percentages of cholesterol in serum and beta-lipoprotein were calculated in the same manner as above.

Question: Which “Reduction Percentage, Cholesterol in serum” value does the source give for `CCCCCCCCCc1cc(C(=O)O)n[nH]1` [5-n-nonylpyrazole-3-carboxylic acid] here?
Answer: The value was 11.1%.

Question: With `CCCCCCCCCCCc1cc(C(=O)O)n[nH]1` [5-n-undecylpyrazole-3-carboxylic acid] as the compound, how does the “Reduction Percentage, Cholesterol in serum” value read?
Answer: Its value is 22.8%.

Question: For `CCOC(=O)C(C)(C)Oc1ccc(Cl)cc1` [Clofibrate, reference compound], which “Reduction Percentage, Cholesterol in serum” value is on record?
Answer: The value was -3.5%.

Same assay, conditions: male SD rats, oral 200 mg/kg/day for 7 days, heparin-calcium precipitation

Question: For `CCCCCCCCCc1cc(C(=O)O)n[nH]1` [5-n-nonylpyrazole-3-carboxylic acid], which “Reduction Percentage, Cholesterol in beta-lipoprotein” value is on record?
Answer: Its value is 0.6%.

Question: For `CCCCCCCCCCCc1cc(C(=O)O)n[nH]1` [5-n-undecylpyrazole-3-carboxylic acid], which “Reduction Percentage, Cholesterol in beta-lipoprotein” value is on record?
Answer: The value was 20.1%.

Question: With `CCOC(=O)C(C)(C)Oc1ccc(Cl)cc1` [Clofibrate, reference compound] as the compound, how does the “Reduction Percentage, Cholesterol in beta-lipoprotein” value read?
Answer: Its value is -2.0%.

Test system: serum lipid
Assay: not given
Conditions: Kupiecki et al. 1968; cited from earlier work

Question: With `Cc1cc(C(=O)O)n[nH]1` [5-Methylpyrazol-3-carboxylic acid] as the compound, how does the “activity to reduce the level of serum lipid” value read?
Answer: The value was “activity to reduce the level of serum lipid”.

Test system: hypertriglyceridemia
Assay: Pharmacological test against hypertriglyceridemia (fructose-induced)
Type: in vivo
Conditions: serum, male SD rats, oral 3 times, 300 mg/kg as free carboxylic acid, after 48 hours, 10% fructose
Protocol: (i) Pharmacological test against hypertriglyceridemia:
The groups were made to be hypertriglyceridemia by giving an aqueous 10% by weight solution of fructose for 2 days, those of control group being given tap water. The administration of six kinds of the present derivatives and of nicotinic acid was as follows:
Each specimen of the present pyrazole derivatives and nicotinic acid was dissolved or dispersed into an aqueous 1% solution of carboxymethylcellulose (CMC) at a predetermined concentration, and the thus prepared solution or dispersion was orally administered 3 times in the volume of 0.5 ml/100 g body weight, that is, first dose just after the commencement of the present test, second dose after 24 hours of the first administration and third dose after 18 hours of the second administration. The dose of each compound was set so that each animal intaked 300 mg/kg of each compound as free carboxylic acid. The rats of control group were given the aqueous 1% solution of CMC only three times at the same intervals as the test groups. All the groups were fed with the same diet during the test period.
After 48 hours of the commencement of the test, blood sample was collected from each animal by amputation of the carotid artery, and serum was separated from the blood sample and frozen to be kept until lipid analysis.
Serum triglyceride was determined by Acetylacetone Method, and the reduction percentage of lipid was calculated by the following formula: [formula] wherein the amount is the average of the group.
Analysis for serum cholesterol:
The content of serum cholesterol was determined by an enzymatic method using cholesteroloxidase, and the reduction percentage of cholesterol was calculated by the following formula: [formula]

Question: Which results are given for `CCCCCCCc1cc(C(=O)O)n[nH]1` [5-n-heptylpyrazole-3-carboxylic acid]?
Answer: Reduction Percentage, Cholesterol: 12.5%; Reduction Percentage, Triglyceride: 40.6%

Question: Which results are given for `CCCCCCCCCc1cc(C(=O)O)n[nH]1` [5-n-nonylpyrazole-3-carboxylic acid]?
Answer: Reduction Percentage, Cholesterol: 12.2%; Reduction Percentage, Triglyceride: 66.5%

Question: Which “Reduction Percentage, Cholesterol” value does the source give for `CCCCCCCCCCCc1cc(C(=O)O)n[nH]1` [5-n-undecylpyrazole-3-carboxylic acid] here?
Answer: Its value is 40.0%.

Question: And the “Reduction Percentage, Triglyceride” value?
Answer: Its value is 69.1%.

Question: What does the source list for `CCCCCCCc1cc(C(=O)OCC)n[nH]1` [Ethyl 5-n-heptylpyrazole-3-carboxylate, ethyl 5-n-heptylpyrazole-3-carboxylate]?
Answer: Reduction Percentage, Cholesterol: 2.1%; Reduction Percentage, Triglyceride: 41.1%

Question: For `CCCCCCCCCc1cc(C(=O)OCC)n[nH]1` [Ethyl 5-n-nonylpyrazole-3-carboxylate, ethyl 5-n-nonylpyrazole-3-carboxylate], which “Reduction Percentage, Cholesterol” value is on record?
Answer: The value was 29.5%.

Question: And the “Reduction Percentage, Triglyceride” value?
Answer: The value was 63.1%.

Question: For `CCCCCCCCCCCc1cc(C(=O)OCC)n[nH]1` [Ethyl 5-n-undecylpyrazole-3-carboxylate, ethyl 5-n-undecylpyrazole-3-carboxylate], which “Reduction Percentage, Cholesterol” value is on record?
Answer: The value was 53.1%.

Question: And the “Reduction Percentage, Triglyceride” value?
Answer: The value was 83.7%.

Question: Which “Reduction Percentage, Cholesterol” value does the source give for `O=C(O)c1cccnc1` [nicotinic acid, reference compound] here?
Answer: Its value is 16.4%.

Question: What about the “Reduction Percentage, Triglyceride” value of the same compound?
Answer: The value was 24.1%.

Test system: patients
Assay: not given
Conditions: administration to patients; cited from earlier work

Question: For `CCOC(=O)C(C)(C)Oc1ccc(Cl)cc1` [Clofibrate, reference compound], which side effects is on record?
Answer: Its side effects is “causes the diseases in the bile duct system and is in danger of causing cancer”.

Question: Which side effects does the source give for `O=C(O)c1cccnc1` [nicotinic acid, reference compound] here?
Answer: The side effects was “causing flushing or eruptions on the face and skin”.

Reference: patent publication US4323576A, “Derivatives of pyrazole for use in therapy” (Morishita Pharmaceutical Co., Ltd., priority 1979, dated 1982)
